Values of other authors as cited in patent publication US20230405095A1, “DOSING REGIMEN” (VIIV HEALTHCARE UK (NO. 7) LIMITED, priority 2022, published 2023).

B1: rHuPH20: soluble hyaluronidase composition produced upon expression in a mammalian cell of nucleic acid encoding residues 36-482 of SEQ ID NO:1 (protein, listed as Homo sapiens)
chain: LNFRAPPVIPNVPFLWAWNAPSEFCLGKFDEPLDMSLFSFIGSPRINATGQGVTIFYVDRLGYYPYIDSITGVTVNGGIPQKISLQDHLDKAKKDITFYMPVDNLGMAVIDWEEWRPTWARNWKPKDVYKNRSIELVQQQNVQLSLTEATEKAKQEFEKAGKDFLVETIKLGKLLRPNHLWGYYLFPDCYNHHYKKPGYNGSCFNVEIKRNDDLSWLWNESTALYPSIYLNTQQSPVAATLYVRNRVREAIRVSKIPDAKSPLPVFAYTRIVFTDQVLKFLSQDELVYTFGETVALGASGIVIWGTLSIMRSMKSCLLLDNYMETILNPYIINVTLAAKMCSQVLCQEQGVCIRKNWNSSDYLHLNPDNFAIQLEKGGKFTVRGKPTLEDLEQFSEKFYCSCYSTLSCKEKADVKDTDAVDVCIADGVCIDAFLKPPMETEEPQIFY
modifications: precursor human PH20

How the values were obtained:
[1] = after injection of hyaluronidase; cited from earlier work
[2] = in vivo, sc; cited from earlier work

| Molecule | time until permeability barrier is restored to pre-injection levels [1] | subcutaneous doses shown to be well tolerated [2] |
| --- | --- | --- |
| hyaluronidase | 24 to 48 h | – |
| B1 | – | up to 96,000 U |
